biological target: T1, H^+ +K^+ ATPase (Sus scrofa, UniProt P19156); test: H+ +K+ ATPase inhibition (inorganic phosphoric acid release); format: biochemical; conditions: enzyme prepared from porcine stomach; 30 min with compound at room temperature, pH 6.1; then 30 min at 37° C., pH 7.4, 20 mM KCl
T1 construct: prepared from porcine stomach; from tissue; host or cells: porcine stomach
Description: H^+ +K^+ ATPase (adenosine triphosphatase) (amount of protein: 10 μg) prepared from porcine stomach was added to a Pipes-TRIS [i.e. 2-amino-2-(hydroxymethyl)-1,3-propanediol] buffer solution (pH 6.1) containing 2 mM of piperazine N,N'-bis(2-ethanesulfonic acid), and the mixture was let stand at room temperature. A test compound was dissolved in dimethyl formamide, and the mixture was added to said H^+ +K^+ ATPase buffer solution so that the final concentration should be 1% and let stand for reaction for 30 minutes at room temperature. Then a 75 mM Pipes-TRIS buffer (1 ml, pH 7.4) (containing 4 mM MgCl2, 4 mM Na2 ATP, and 20 mM KCl) and a 75 mM Pipes-TRIS buffer (1 ml, pH 7.4) (containing 4 mM MgCl2, and 4 mM Na2 ATP) were added to the solution individually to make two kinds of samples and these samples were presented for reaction for 30 minutes at 37° C. 40% Trichloroacetic acid (0.3 ml) was added to each sample to stop the reaction. The solution were subjected to centrifugal separation (3000 rpm) for 10 minutes, and the supernatant was taken off, then the formed inorganic phosphoric acid was measured by Fiske and Subbarow's method [J. Biol. Chem. vol. 66, 375 (1925)]. The value of deducting the amount of inorganic phosphoric acid taken from the Pipes-Tris buffer not containing 20 mM KCl from that taken from the Pipes-Tris buffer containing 20 mM KCl was calculated in terms of unit protein and unit hour to be defined as an activity index of enzyme. Inhibition level (%) in doses of administration was estimated by control values and activity indices of enzyme, and from the obtained inhibition level (%), IC50 (dose of administration of compounds to inhibit in 50%) was obtained.

T1 sequence (P19156 2-1034 limits assumed): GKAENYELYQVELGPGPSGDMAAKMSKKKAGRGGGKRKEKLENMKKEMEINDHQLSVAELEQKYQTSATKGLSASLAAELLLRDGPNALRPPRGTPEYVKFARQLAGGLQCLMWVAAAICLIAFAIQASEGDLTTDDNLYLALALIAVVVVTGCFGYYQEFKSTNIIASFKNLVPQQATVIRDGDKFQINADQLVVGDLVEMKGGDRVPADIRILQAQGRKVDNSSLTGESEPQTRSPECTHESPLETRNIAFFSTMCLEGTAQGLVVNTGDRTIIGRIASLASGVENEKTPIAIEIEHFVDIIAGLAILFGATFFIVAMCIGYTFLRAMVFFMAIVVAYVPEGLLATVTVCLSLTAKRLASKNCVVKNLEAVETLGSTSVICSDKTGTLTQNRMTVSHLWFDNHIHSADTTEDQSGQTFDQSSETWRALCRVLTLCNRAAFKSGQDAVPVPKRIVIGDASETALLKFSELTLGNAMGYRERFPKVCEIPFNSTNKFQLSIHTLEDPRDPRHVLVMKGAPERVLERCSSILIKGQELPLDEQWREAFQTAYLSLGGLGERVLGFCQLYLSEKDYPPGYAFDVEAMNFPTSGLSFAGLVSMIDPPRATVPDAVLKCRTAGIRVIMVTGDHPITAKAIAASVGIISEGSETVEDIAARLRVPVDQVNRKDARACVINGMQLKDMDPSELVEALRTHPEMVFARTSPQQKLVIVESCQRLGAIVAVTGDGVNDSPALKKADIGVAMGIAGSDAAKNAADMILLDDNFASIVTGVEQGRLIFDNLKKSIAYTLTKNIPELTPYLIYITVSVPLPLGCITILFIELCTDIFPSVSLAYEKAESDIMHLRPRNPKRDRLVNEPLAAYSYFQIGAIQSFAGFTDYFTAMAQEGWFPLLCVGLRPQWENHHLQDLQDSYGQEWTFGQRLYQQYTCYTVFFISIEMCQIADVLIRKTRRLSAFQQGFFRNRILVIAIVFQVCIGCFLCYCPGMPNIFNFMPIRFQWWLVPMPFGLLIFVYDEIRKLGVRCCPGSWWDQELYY
T1 sequence (P18434 whole entry partner): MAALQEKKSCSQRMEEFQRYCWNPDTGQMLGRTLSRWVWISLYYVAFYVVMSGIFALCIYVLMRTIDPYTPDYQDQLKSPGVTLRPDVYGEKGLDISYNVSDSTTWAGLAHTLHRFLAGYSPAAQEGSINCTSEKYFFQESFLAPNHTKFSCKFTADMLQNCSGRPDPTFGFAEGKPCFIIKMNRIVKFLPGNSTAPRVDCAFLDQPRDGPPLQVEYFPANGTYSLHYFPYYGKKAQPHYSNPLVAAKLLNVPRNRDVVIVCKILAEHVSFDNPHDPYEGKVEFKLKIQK

First: 1,4-dimethyl-8-(5-fluoro-6-methyl-2-benzimidazolyl)sulfinylmethyl-1,2,3,4- tetrahydroquinoline [Test compound No. 30]
Second: CCN1CCCc2cccc(C[S+]([O-])c3nc4ccc(C)cc4[nH]3)c21 (stereo not shown) [Test compound No. 2, 1-ethyl-8-(5-methyl-2-benzimidazolyl)sulfinylmethyl-1,2,3,4-tetrahydroquinoline]
The IC50 of the first is 3.4-fold higher: 610 nM for the first, 180 nM for the second.

First: CCN1CCCc2cccc(C[S+]([O-])c3nc4ccc(OC)cc4[nH]3)c21 (stereo not shown) [Test compound No. 3, 1-ethyl-8-(5-methoxy-2-benzimidazolyl)sulfinylmethyl-1,2,3,4-tetrahydroquinoline]
Second: CCN1CCCc2cccc(C[S+]([O-])c3nc4ccc(F)cc4[nH]3)c21 (stereo not shown) [Test compound No. 4, 1-ethyl-8-(5-fluoro-2-benzimidazolyl)sulfinylmethyl-1,2,3,4-tetrahydroquinoline]
The IC50 of the first is 2.2-fold lower: 450 nM for the first, 1000 nM for the second.

`CCN1CCCc2cccc(C[S+]([O-])c3nc4cc(F)c(F)cc4[nH]3)c21` (stereo not shown) [Test compound No. 5, 1-ethyl-8-(5,6-difluoro-2-benzimidazolyl)sulfinylmethyl-1,2,3,4-tetrahydroquinoline] and `CCN1CCCc2cccc(C[S+]([O-])c3nc4cc(OC)c(F)cc4[nH]3)c21` (stereo not shown) [Test compound No. 6, 1-ethyl-8-(5-fluoro-6-methoxy-2-benzimidazolyl)sulfinylmethyl-1,2,3,4-tetrahydroquinoline] are within 1.5-fold of each other in IC50: 440 nM for the first, 620 nM for the second.

Going from `CCOc1cc2[nH]c([S+]([O-])Cc3cccc4c3N(CC)CCC4)nc2cc1F` (stereo not shown) [Test compound No. 7, 1-ethyl-8-(5-ethoxy-6-fluoro-2-benzimidazolyl)sulfinylmethyl-1,2,3,4-tetrahydroquinoline] to `CCN1CCCc2cccc(C[S+]([O-])c3nc4ccc(Cl)cc4[nH]3)c21` (stereo not shown) [Test compound No. 8, 1-ethyl-8-(5-chloro-2-benzimidazolyl)sulfinylmethyl-1,2,3,4-tetrahydroquinoline], the IC50 falls from 1600 nM to 220 nM (7.3-fold).

First: CCN1CCCc2cccc(C[S+]([O-])c3nc4ccc(C(C)=O)cc4[nH]3)c21 (stereo not shown) [Test compound No. 9, 1-ethyl-8-(5-acetyl-2-benzimidazolyl)sulfinylmethyl-1,2,3,4-tetrahydroquinoline]
Second: CCN1CCCc2cccc(C[S+]([O-])c3nc4ccc(C(F)(F)F)cc4[nH]3)c21 (stereo not shown) [Test compound No. 10, 1-ethyl-8-(5-trifluoromethyl-2-benzimidazolyl)sulfinylmethyl-1,2,3,4-tetrahydroquinoline]
The IC50 of the first is 5.9-fold higher: 2200 nM for the first, 370 nM for the second. The second is the more potent here.

`CCN1CCCc2cccc(C[S+]([O-])c3nc4cccc(C)c4[nH]3)c21` (stereo not shown) [Test compound No. 11, 1-ethyl-8-(4-methyl-2-benzimidazolyl)sulfinylmethyl-1,2,3,4-tetrahydroquinoline] and `CCN1CCCc2cccc(C[S+]([O-])c3nc4cc(C)cc(C)c4[nH]3)c21` (stereo not shown) [Test compound No. 12, 1-ethyl-8-(4,6-dimethyl-2-benzimidazolyl)sulfinylmethyl-1,2,3,4-tetrahydroquinoline] are within 1.5-fold of each other in IC50: 500 nM for the first, 420 nM for the second.

`CCN1CCCc2cccc(C[S+]([O-])c3nc4cc(C)c(C)cc4[nH]3)c21` (stereo not shown) [Test compound No. 13, 1-ethyl-8-(5,6-dimethyl-2-benzimidazolyl)sulfinylmethyl-1,2,3,4-tetrahydroquinoline] and `CN1CCCc2cccc(C[S+]([O-])c3nc4ccccc4[nH]3)c21` (stereo not shown) [Test compound No. 14, 1-methyl-8-(2-benzimidazolyl)sulfinylmethyl-1,2,3,4-tetrahydroquinoline] are the same in IC50: 170 nM for the first, 170 nM for the second.

`CN1CCCc2cccc(C[S+]([O-])c3nc4ccc(F)cc4[nH]3)c21` (stereo not shown) [Test compound No. 15, 1-methyl-8-(5-fluoro-2-benzimidazolyl)sulfinylmethyl-1,2,3,4-tetrahydroquinoline] and `COc1ccc2nc([S+]([O-])Cc3cccc4c3N(C)CCC4)[nH]c2c1` (stereo not shown) [Test compound No. 16, 1-methyl-8-(5-methoxy-2-benzimidazolyl)sulfinylmethyl-1,2,3,4-tetrahydroquinoline] are within 1.5-fold of each other in IC50: 530 nM for the first, 690 nM for the second.

Reference: US4963566A, “Benzimidazolyl-sulfinyl-tetrahydroquinolines” (Otsuka Pharmaceutical Co., Ltd., priority 1986, dated 1990)
